Assay results taken from paper PMC12856317, “A reversible feedback mechanism regulating mitochondrial heme synthesis” (The Journal of Biological Chemistry, 2025).

Target: T1, WT holoALAS2 (residues 54–587) (Homo sapiens, UniProt P22557)
T1 construct: His6-SUMO (N, cleaved yes); made in house; host or cells: Escherichia coli BL21-Codon Plus (DE3)-RIL
T1 sequence (P22557 54-587): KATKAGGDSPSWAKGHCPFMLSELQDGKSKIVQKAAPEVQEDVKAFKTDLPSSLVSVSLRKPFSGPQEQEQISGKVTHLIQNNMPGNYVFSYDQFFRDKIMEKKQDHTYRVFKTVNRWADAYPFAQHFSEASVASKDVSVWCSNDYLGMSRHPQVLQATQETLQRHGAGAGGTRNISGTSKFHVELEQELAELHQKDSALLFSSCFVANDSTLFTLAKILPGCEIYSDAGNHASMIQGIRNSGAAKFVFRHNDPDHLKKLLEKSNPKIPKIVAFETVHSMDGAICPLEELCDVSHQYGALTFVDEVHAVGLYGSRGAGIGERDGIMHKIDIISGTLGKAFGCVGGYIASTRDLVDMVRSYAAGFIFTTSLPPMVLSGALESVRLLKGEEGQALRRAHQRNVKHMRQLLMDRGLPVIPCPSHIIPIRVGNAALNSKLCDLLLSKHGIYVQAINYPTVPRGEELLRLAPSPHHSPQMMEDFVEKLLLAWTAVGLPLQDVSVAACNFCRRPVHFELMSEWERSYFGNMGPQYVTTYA
Assay: Succinyl-CoA:hemin competition analysis
Assay type: biochemical
Details: succinyl-CoA varied; for Km: 95% confidence interval in brackets
Protocol: A discontinuous colorimetric activity assay adapted from Shoolingin-Jordan et al. and Bailey et al. was used to measure the enzyme activity ([48], [74]). The reaction was initiated by adding 100 nM purified enzyme to 50 mM potassium phosphate, pH 7.0, 10 mM MgCl2, 1 mM DTT, 100 mM glycine, and 300 μM succinyl-CoA (175 μl total). The reaction was incubated at 37 °C for 15 min and terminated with 100 μl of cold 10% trichloroacetic acid. The precipitated protein was removed by centrifugation for 5 min at 13,000g, and 240 μl of the supernatant was mixed with 240 μl of 1 M sodium acetate, pH 4.6. To derivatize ALA, 20 μl of acetylacetone was added to the mixture and boiled at 100 °C for 10 min. After the sample was cooled for 20 min, 100 μl aliquots were transferred into a clear 96-well plate in triplicate. An equal volume of Ehrlich’s reagent (p-Dimethylaminobenzaldehyde, DMAB) was added to each well, and the absorbance was monitored at 553 nm using a microplate reader (Thermo Fisher Scientific). The peak absorbance value was converted to molar ALA concentration using ε553 = 60,400 M^−1 cm^−1.
For inhibitor competition experiments, the apoenzymes were preincubated with hemin or PLP (0–100 μM) for 15 min at 25 °C in the dark before initiating the reaction. Next, either PLP or hemin (0–100 μM) was titrated into the reactions to measure enzyme activation after hemin inhibition or enzyme inhibition of the PLP-treated apoenzyme, respectively. For succinyl-CoA:hemin competition analyses, the WT holoenzyme was mixed with hemin (0, 25, 50, and 100 μM), followed by the addition of increasing succinyl-CoA concentrations (0, 25, 50, 100, 250, and 500 μM). All experiments were performed with a minimum of three biological replicates, each with three technical replicates. Data were fit using nonlinear regression to generate an agonist dose-response curve (EC50) or an inhibitor dose-response curve (IC50). Lineweaver-Burk analysis was performed using the resulting kinetic parameters (Vmax and KM) in GraphPad Prism 10.

succinyl-CoA
Vmax (hemin 0 μM): 337.15 [445.63, 271.22] nmol/min/mg
Km (hemin 0 μM): 178 µM
Vmax (hemin 25 μM): 109.04 [132.82, 92.51] nmol/min/mg
Km (hemin 25 μM): 54.8 µM
Vmax (hemin 50 μM): 45.98 [63.13, 36.15] nmol/min/mg
Km (hemin 50 μM): 46.2 µM
Vmax (hemin 100 μM): 37.50 [60.98, 27.07] nmol/min/mg
Km (hemin 100 μM): 39.2 µM
